{
  "source": "paper PMC12909347",
  "about": "“Disconnect between in vitro and in vivo efficacy of the MPS1 inhibitor NTRC 0066-0 against glioblastoma” (Cellular Oncology, 2026)",
  "key": {"[1]": {"experiment": "Pharmacokinetics and brain penetration in wild-type FVB mice", "type": "in vivo", "protocol": "The pharmacokinetics of NTRC 0066-0 were analyzed in wild-type (WT), Abcb1a/b^−/−, Abcg2^−/−, Abcb1a/b^−/−;Abcg2^−/− and Abcb1a/b^−/−;Abcg2^−/−;Abcc4^−/− FVB mice. All knockout mice strains have been developed at the Netherlands Cancer Institute. For i.v. administration, NTRC0066-0 was formulated in DMSO: Cremophor EL: saline (1:1:8 v/v) and injected at a dose of 5 mg/kg. For i.p and oral administration, NTRC0066-0 was administered at 5, 10 or 20 mg/kg as indicated. Serial blood sampling was done by tail vein bleeding at specific time points. At terminal time points, blood was drawn by cardiac puncture followed by tissue collection. Plasma was obtained from whole blood by centrifugation (5 min, 5,000 rpm, 4 °C) and tissues were weighed and homogenized using a FastPrep®-24 (MP-Biomedicals, NY) in 1% (w/v) bovine serum albumin (Sigma-Aldrich) in water.\nNTRC 0066-0 was extracted from in vitro and in vivo samples using liquid–liquid extraction with diethyl ether. Another MPS-1 inhibitor, Compound 5 (Cpd-5), was added to the samples as an internal standard. The dried organic phase was reconstituted in 30% methanol in water (v/v). Samples were measured using an LC-MS/MS system comprising an UltiMate 3000 LC Systems (Dionex, Sunnyvale, CA) and an API 4000 mass spectrometer (Sciex, Framingham, MA). Samples were injected on to a Securityguard C18 pre-column (Phenomenex, Utrecht, The Netherlands) connected to a ZORBAX Extend-C18 column (Agilent, Santa Clara, CA). Elution was done at a flow rate of 0.2 mL/min using a 5 min gradient from 20% to 95% B (mobile phase A was 0.1% HCOOH in water (v/v) and mobile phase B was methanol). 95% B was maintained for 3 min followed by re-equilibration at 20% B. Multiple reaction monitoring parameters were 566.2/391.4 (NTRC0066-0) and 581.6/397.0 (internal standard). Analyst® 1.6.2 software (Sciex) was used for system control and data analysis.\nPK solver was used to determine pharmacokinetic parameters. The standard error of the oral bioavailability was calculated using the formula below: […]"}, "LN-428": {"test_system": "LN-428", "experiment": "Cell survival assay (crystal violet), continuous exposure", "type": "cell-based, human", "conditions": "LN-428, continuous exposure, Fig. 1A", "protocol": "(§1) Wells were pre-coated with poly-ornithine (15 µg/ml for 3 h at room temperature) and subsequently with laminin (7.5 µg/ml for 1 h at 37 °C) prior to seeding GSCs to make them adherent without inducing differentiation. […] Cells were plated in 24-wells plates at low cell densities (2,000–10,000 cells/well) and exposed to different concentrations of NTRC0066-0 24 h later. NTRC0066-0 was dissolved in DMSO (Sigma-Aldrich) for in vitro experiments and final DMSO concentrations never exceeded 0.1%. When untreated wells were confluent (approximately 6–10 days after seeding, dependent on the cell line), cells were fixed and stained using a solution containing 0.5% crystal violet (w/v; Sigma-Aldrich) and 6% glutaraldehyde (v/v; Honeywell, Morris Plains, NJ). Plates were imaged using a Chemi-Doc XRS+ (Bio-rad, Hercules, CA) and analyzed using the Colony Area plugin of ImageJ [24]. IC50 curves were fitted and plotted using the ‘log(inhibitor) vs. normalized response – Variable slope’ fitting procedure of GraphPad Prism v10.3 (GraphPad Software, La Jolla, CA). Monotherapy curves were corrected for untreated controls."}, "HS683": {"test_system": "HS683", "experiment": "Cell survival assay (crystal violet), continuous exposure", "type": "cell-based, human", "conditions": "Fig. 1A", "protocol": "as §1"}, "E98": {"test_system": "E98", "experiment": "Cell survival assay (crystal violet), continuous exposure", "type": "cell-based, human", "conditions": "Fig. 1A", "protocol": "as §1"}, "U87": {"test_system": "U87", "experiment": "Cell survival assay (crystal violet), continuous exposure", "type": "cell-based, human", "conditions": "Fig. 1A", "protocol": "as §1"}, "T98G": {"test_system": "T98G", "experiment": "Cell survival assay (crystal violet), continuous exposure", "type": "cell-based, human", "conditions": "Fig. 1A", "protocol": "as §1"}, "LN-751": {"test_system": "LN-751", "experiment": "Cell survival assay (crystal violet), continuous exposure", "type": "cell-based, human", "conditions": "LN-751, continuous exposure, Fig. 1A", "protocol": "as §1"}},
  "data": [
    {"compound": "CCc1cccc(CC)c1NC(=O)c1ccn2c1CCc1cnc(Nc3ccc(N4CCN(C)CC4)cc3OC)nc1-2", "note": "[NTRC 0066-0]", "values": [
      {"measurement": "Oral bioavailability (relative to i.p.)", "setting": "[1]; WT mice", "value": "about 50%"},
      {"measurement": "Brain-plasma ratio", "setting": "[1]; WT mice, 1 h after 5 mg/kg i.v.", "value": "approximately 4"},
      {"measurement": "Brain-to-plasma ratio", "setting": "[1]; WT mice, 24 h after 10 mg/kg p.o. or i.p.", "value": "approximately 20"},
      {"measurement": "Cmax", "setting": "[1]; WT, i.p. 10 mg/kg", "value": "780 ± 130", "unit": "nM"},
      {"measurement": "MRT", "setting": "[1]; WT, i.p. 10 mg/kg", "value": "3.2 ± 0.4", "unit": "h"},
      {"measurement": "t1/2", "setting": "[1]; WT, i.p. 10 mg/kg", "value": "2.5 ± 0.2", "unit": "h"},
      {"measurement": "tmax", "setting": "[1]; WT, i.p. 10 mg/kg", "value": "0.5 ± 0.3", "unit": "h"},
      {"measurement": "Plasma AUCi.p.", "setting": "[1]; WT, i.p. 10 mg/kg, 0-∞", "value": "2800 ± 450", "unit": "nM·h"},
      {"measurement": "Cmax", "setting": "[1]; WT, p.o. 10 mg/kg", "value": "180 ± 6.7", "unit": "nM"},
      {"measurement": "MRT", "setting": "[1]; WT, p.o. 10 mg/kg", "value": "4.7 ± 0.2", "unit": "h"},
      {"measurement": "t1/2", "setting": "[1]; WT, p.o. 10 mg/kg", "value": "2.8 ± 0.2", "unit": "h"},
      {"measurement": "tmax", "setting": "[1]; WT, p.o. 10 mg/kg", "value": "1.8 ± 1.5", "unit": "h"},
      {"measurement": "F (bioavailability)", "setting": "[1]; WT, p.o. 10 mg/kg relative to i.p.", "value": "59 ± 11", "unit": "%"},
      {"measurement": "Plasma AUCp.o.", "setting": "[1]; WT, p.o. 10 mg/kg, 0-∞", "value": "1700 ± 150", "unit": "nM·h"},
      {"measurement": "IC50", "setting": "LN-428", "value": 39, "unit": "nM"},
      {"measurement": "IC50", "setting": "HS683", "value": 42, "unit": "nM"},
      {"measurement": "IC50", "setting": "E98", "value": 23, "unit": "nM"},
      {"measurement": "IC50", "setting": "U87", "value": 31, "unit": "nM"},
      {"measurement": "IC50", "setting": "T98G", "value": 18, "unit": "nM"},
      {"measurement": "IC50", "setting": "LN-751", "value": 37, "unit": "nM"}
    ]}
  ]
}
